Results taken from patent US7572765B2, “Conformationally constrained parathyroid hormone (PTH) analogs” (The General Hospital Corporation, priority 2001, dated 2009).
Square brackets hold non-standard residues; d marks the D form. Peptide text beside a SMILES is read from it. hArg = N=C(N)NCCCC[C@H](N)C(=O)O; Aib = CC(C)(N)C(=O)O

Legend:
human P1R = target: T1, human P1R (Homo sapiens, UniProt Q03431); test: cAMP stimulation in HKRK-B28 cells; format: cell-based; details: basal 4.0 ± 0.1 pmole/well not subtracted
T1 construct: expressed in transfected cells; host or cells: HKRK-B28 (porcine kidney LLC-PK1, stably transfected)
T1 sequence (Q03431 27-593): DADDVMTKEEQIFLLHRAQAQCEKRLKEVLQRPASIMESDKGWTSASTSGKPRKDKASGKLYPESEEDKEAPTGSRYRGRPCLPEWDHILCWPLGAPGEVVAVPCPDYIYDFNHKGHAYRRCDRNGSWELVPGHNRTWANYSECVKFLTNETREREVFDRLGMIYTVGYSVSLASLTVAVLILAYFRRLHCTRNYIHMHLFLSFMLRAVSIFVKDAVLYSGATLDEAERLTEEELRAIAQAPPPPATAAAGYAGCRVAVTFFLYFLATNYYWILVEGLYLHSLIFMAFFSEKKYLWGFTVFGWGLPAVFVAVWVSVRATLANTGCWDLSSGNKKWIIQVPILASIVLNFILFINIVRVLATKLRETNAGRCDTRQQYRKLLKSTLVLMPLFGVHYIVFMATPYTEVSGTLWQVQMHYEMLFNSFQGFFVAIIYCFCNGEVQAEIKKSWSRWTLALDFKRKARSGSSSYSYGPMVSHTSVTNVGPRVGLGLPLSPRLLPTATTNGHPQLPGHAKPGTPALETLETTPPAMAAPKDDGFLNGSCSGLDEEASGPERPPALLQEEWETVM
Experimental: Cell Culture. The cell line HKRK-B28 (Takasu, H., et al., J. Bone Miner. Res. 14:11-20 (1999)) was derived from the porcine kidney cell line, LLC-PK1 by stable transfection with plasmid DNA encoding the human P1R and expresses ˜280,000 receptors per cell. These cells, as well as COS-7 cells and SaOS-2-B10 cells, were cultured at […] in T-75 flasks ([…]) in Dulbecco's modified Eagle's medium (DMEM) supplemented with fetal bovine serum (10%), penicillin G (20 units/ml), streptomycin sulfate (20 μg/ml) and amphotericin B (0.05 μg/ml) in a humidified atmosphere containing 5% CO2. Stock solutions of EGTA/trypsin and antibiotics were from GIBCO; fetal bovine serum was from Hyclone Laboratories (Logan, Utah). COS-7 cells sub-cultured in 24-well plates were transfected with plasmid DNA (200 ng per well) encoding the wild-type human P1R or truncated human P1R deleted for residues (24-181) (Shimizu, M., et al., J. Biol. Chem. 275:21836-21843 (2000)) that was purified by cesium chloride/ethidium bromide density gradient centrifugation, and FuGENE 6 transfection reagent (Roche Indianapolis Ind.) according to the manufacturer's recommended procedure. All cells, in 24-well plates, were treated with fresh media and shifted to 33° C. for 12 to 24 h prior to assay.
cAMP Stimulation. Stimulation of cells with peptide analogs was performed in 24-well plates. Cells were rinsed with 0.5 mL of binding buffer (50 mM Tris-HCI, […], 5 mM KCl, 2 mM CaCl2, 5% heat-inactivated horse serum, 0.5% fetal bovine serum, adjusted to pH 7.5 with HCl) and treated with 200 μL of cAMP assay buffer (Delbecco's modified Eagle's medium containing 2 mM 3-isobutyl-1-methylxanthine, 1 mg/mL bovine serum albumin, 35 mM Hepes-NaOH, pH 7.4) and 100 μL of binding buffer containing varying amounts of peptide analog (final volume=300 μL). The medium was removed after incubation for 30 to 60 minutes at room temperature, and the cells were frozen on dry ice, lysed with 0.5 mL 50 mM HCl, and refrozen ([…]). The cAMP content of the diluted lysate was determined by radioimmunoassay. The EC50 response values were calculated using nonlinear regression (see below).
Data Calculation. Calculations were performed using Microsoft® Excel. Nonlinear regression analyses of binding and cAMP dose-response data were performed using the four-parameter equation: yp=Min+[(Max−Min)/(1+(IC50/x)^slope)]. The Excel Solver function was utilized for parameter optimization, as described previously (Carter, P. H., et al., Endocrinology 140: 4972-4981 (1999); Bowen, W. P., and Jerman, J. C., Trends in Pharmacol. Sci. 16: 413-417 (1995)). Differences between paired data sets were statistically evaluated using a one-tailed Student's t-test, assuming unequal variances for the two sets.

[1] = Circular dichroism spectroscopy (helical content); format: physicochemical
Experimental: Circular Dichroism. Circular Dichroism spectra were recorded on a Jasco model 710 spectropolarimeter; peptides were analyzed at a concentration of20 μM in 50 mM sodium phosphate buffer pH 7.4, or the same buffer containing 2,2,2-trifluoroethanol at 20% (v/v). Spectroscopic scans were preformed at 20° C. and at wavelengths between […], with data recored at each 1 nM interval. The spectral bandwidth was 1.5 nM and 8 scans were accumulated and averaged for each sample. At each wavelength, the mean residue elipticity [θ×100/l×C×n); where θ is the raw elipticity value (in dimensions of millidegree), l is the sample path length, C=is the molar peptide concentration, and n is the number of residues in the peptide (Bowen, W. P., and Jerman, J. C., Trends in Pharmacol. Sci. 16: 413-417 (1995)). The helical content of each peptide was estimated by dividing [θ] observed at 222 nM for that peptide by −28,100, which is the reported [θ]222obs for a model helical decapeptide (Bowen, W. P., and Jerman, J. C., Trends in Pharmacol. Sci. 16: 413-417 (1995)).
Circular dichroism (CD) spectroscopy was used to analyze the potential effects that the Aib substitutions had on peptide secondary structure when the peptides were free in solution. Samples were analyzed in both aqueous phosphate buffer and in phosphate buffer containing 2,2,2-trifloroethanol, an organic solvent which promotes helical structure in oligopeptides, including PTH peptide fragments (Pellegrini, M., et al., J. Biol. Chem. 273:10420-10427 (1998); Gronwald, W., et al., Biol. Chem. Hoppe Seyler 377:175-186 (1996); Barden, J. A., and Kemp, B. E., Biochemistry 32:7126-7132 (1993)). In phosphate buffer, the helical content of each peptide, estimated from the elipticity observed at 222 nM, was small (≦16%); however, [Aib^1,3,M]PTH(1-14) contained nearly twice as much helix as did [M]PTH(1-14) (16% and 8.1% respectively), as did [Aib^1,3,M]PTH(1-1l), as compared to […] (13% and 7.5% respectively, Table 4). […] The higher helical contents of these two peptides were evident not only from the negative elipticities at […] and 222 nM, but also from the positive elipticities at 192 nM (FIG. 6).

| Compound | cAMP EMax(obs.) (human P1R) | further results |
| --- | --- | --- |
| CC[C@H](C)[C@H](NC(=O)[C@H](CCC(=O)O)NC(=O)[C@H](C)NC(=O)[C@@H](NC(=O)[C@H](C)N)C(C)C)C(=O)NC(C)(C)C(=O)N[C@@H](CC(C)C)C(=O)N[C@@H](CCSC)C(=O)N[C@@H](Cc1c[nH]cn1)C(=O)N[C@@H](CCC(N)=O)C(=O)N[C@@H](CCCCNC(=N)N)C(=O)N[C@@H](C)C(=O)N[C@@H](CCCCN)C(=O)N[C@@H](Cc1c[nH]c2ccccc12)C(N)=O [Aib-6] (H-AVAEI[Aib]LMHQ[hArg]AKW-NH2) | 116 ± 12 pmole/well | – |
| PTH(1-11): unmodified N-terminal PTH(1-11) peptide (SVSEIQLMHNL; Parathyroid hormone; UniProt P01270 32-42, looked up, fragment) | – | [0]222obs × 10^−3, Phos. ([1]; 20 μM peptide, 50 mM phosphate buffer pH 7.4): −1.8; [0]222obs × 10^−3, Phos + TFE ([1]; 20 μM peptide, 50 mM phosphate buffer with trifluoroethanol (20%)): −8.4; helical residues (%), Phos + TFE ([1]; 50 mM phosphate buffer with trifluoroethanol (20%), from elipticity at 222 nM): 30%; helical residues (%), Phos. ([1]; 50 mM phosphate buffer, from elipticity at 222 nM): 6.5% |
| CC[C@H](C)[C@H](NC(=O)C(C)(C)NC(=O)[C@H](C)NC(=O)[C@@H](NC(=O)[C@H](C)N)C(C)C)C(=O)N[C@@H](CCC(N)=O)C(=O)N[C@@H](CC(C)C)C(=O)N[C@@H](CCSC)C(=O)N[C@@H](Cc1c[nH]cn1)C(=O)N[C@@H](CCC(N)=O)C(=O)N[C@@H](CCCCNC(=N)N)C(=O)N[C@@H](C)C(=O)N[C@@H](CCCCN)C(=O)N[C@@H](Cc1c[nH]c2ccccc12)C(N)=O [Aib-4] (H-AVA[Aib]IQLMHQ[hArg]AKW-NH2) | 221 ± 10 pmole/well | – |
| CC[C@H](C)[C@H](NC(=O)[C@H](CCC(=O)O)NC(=O)[C@H](C)NC(=O)C(C)(C)NC(=O)[C@H](C)N)C(=O)N[C@@H](CCC(N)=O)C(=O)N[C@@H](CC(C)C)C(=O)N[C@@H](CCSC)C(=O)N[C@@H](Cc1c[nH]cn1)C(=O)N[C@@H](CCC(N)=O)C(=O)N[C@@H](CCCCNC(=N)N)C(=O)N[C@@H](C)C(=O)N[C@@H](CCCCN)C(=O)N[C@@H](Cc1c[nH]c2ccccc12)C(N)=O [Aib-2] (H-A[Aib]AEIQLMHQ[hArg]AKW-NH2) | 168 ± 6 pmole/well | – |

The next lines start with results.

| cAMP EMax(obs.) (human P1R) | Compound | further results |
| --- | --- | --- |
| 275 ± 8 pmole/well | CC[C@H](C)[C@H](NC(=O)[C@H](CCC(=O)O)NC(=O)[C@H](C)NC(=O)[C@@H](NC(=O)[C@H](C)N)C(C)C)C(=O)N[C@@H](CCC(N)=O)C(=O)NC(C)(C)C(=O)N[C@@H](CCSC)C(=O)N[C@@H](Cc1c[nH]cn1)C(=O)N[C@@H](CCC(N)=O)C(=O)N[C@@H](CCCCNC(=N)N)C(=O)N[C@@H](C)C(=O)N[C@@H](CCCCN)C(=O)N[C@@H](Cc1c[nH]c2ccccc12)C(N)=O [Aib-7] (H-AVAEIQ[Aib]MHQ[hArg]AKW-NH2) | – |
| 214 ± 22 pmole/well | CC[C@H](C)[C@H](NC(=O)[C@H](CCC(=O)O)NC(=O)[C@H](C)NC(=O)[C@@H](NC(=O)[C@H](C)N)C(C)C)C(=O)N[C@@H](CCC(N)=O)C(=O)N[C@@H](CC(C)C)C(=O)N[C@@H](CCSC)C(=O)N[C@@H](Cc1c[nH]cn1)C(=O)NC(C)(C)C(=O)N[C@@H](CCCCNC(=N)N)C(=O)N[C@@H](C)C(=O)N[C@@H](CCCCN)C(=O)N[C@@H](Cc1c[nH]c2ccccc12)C(N)=O [Aib-10] (H-AVAEIQLMH[Aib][hArg]AKW-NH2) | – |
| 273 ± 6 pmole/well | CC[C@H](C)[C@H](NC(=O)[C@H](CCC(=O)O)NC(=O)[C@H](C)NC(=O)[C@@H](NC(=O)[C@H](C)N)C(C)C)C(=O)N[C@@H](CCC(N)=O)C(=O)N[C@@H](CC(C)C)C(=O)N[C@@H](CCSC)C(=O)N[C@@H](Cc1c[nH]cn1)C(=O)N[C@@H](CCC(N)=O)C(=O)N[C@@H](CCCCNC(=N)N)C(=O)N[C@@H](C)C(=O)N[C@@H](CCCCN)C(=O)NC(C)(C)C(N)=O [Aib-14] (H-AVAEIQLMHQ[hArg]AK[Aib]-NH2) | – |
| 263 ± 9 pmole/well | CC[C@H](C)[C@H](NC(=O)[C@H](CCC(=O)O)NC(=O)[C@H](C)NC(=O)[C@@H](NC(=O)[C@H](C)N)C(C)C)C(=O)N[C@@H](CCC(N)=O)C(=O)N[C@@H](CC(C)C)C(=O)N[C@@H](CCSC)C(=O)N[C@@H](Cc1c[nH]cn1)C(=O)N[C@@H](CCC(N)=O)C(=O)N[C@@H](CCCCNC(=N)N)C(=O)NC(C)(C)C(=O)N[C@@H](CCCCN)C(=O)N[C@@H](Cc1c[nH]c2ccccc12)C(N)=O [Aib-12] (H-AVAEIQLMHQ[hArg][Aib]KW-NH2) | – |
| 259 ± 10 pmole/well | CC[C@H](C)[C@H](NC(=O)[C@H](CCC(=O)O)NC(=O)[C@H](C)NC(=O)[C@@H](NC(=O)[C@H](C)N)C(C)C)C(=O)N[C@@H](CCC(N)=O)C(=O)N[C@@H](CC(C)C)C(=O)N[C@@H](CCSC)C(=O)N[C@@H](Cc1c[nH]cn1)C(=O)N[C@@H](CCC(N)=O)C(=O)N[C@@H](CCCCNC(=N)N)C(=O)N[C@@H](C)C(=O)NC(C)(C)C(=O)N[C@@H](Cc1c[nH]c2ccccc12)C(N)=O [Aib-13] (H-AVAEIQLMHQ[hArg]A[Aib]W-NH2) | – |
